Patent publication US20230109839A1, “THERAPEUTIC AGENT FOR TAUOPATHIES” (SUMITOMO PHARMA CO., LTD., priority 2020, published 2023)
Like-named read-outs stand apart in the source and are kept apart here.

Molecular target: T1, human Nav1.1 (Homo sapiens, UniProt P35498)
T1 construct: host or cells: HEK293
Assay: Amplification of Nav1.1-derived voltage-gated sodium current (Nav1.1 current), automated patch clamp (Test 1)
Type: cell-based
Conditions: for activation at 1 µM / activation at 10 µM: read-out: Nav1.1 current amplification rate (%); for activation at 10 µM: HEK293, Concentration for evaluation 10 μM
Experimental: Test 1: Evaluation of the Amplification of Nav1.1-Derived Voltage-Gated Sodium Current (Nav1.1 Current) by Using a Cell Line Stably Expressing Human Nav1.1
(1) Preparation of Test Compound Solution
Test compounds were prepared by dissolving in DMSO at 200 times of the concentration at evaluation, and diluting the obtained solution to twice the concentration of evaluation with an extracellular fluid (135 mmol/L NaCl, 4 mmol/L KCl, 1 mmol/L MgCl2, 5 mmol/L CaCl2, 5 mmol/L Glucose, 10 mmol/L HEPES).
(2) Induction and Measurement of Nav1.1 Current
A HEK293 cell line stably expressing human Nav1.1 (cat #CYL3009, Eurofins DiscoverX Products, LLC, Human Embryonic Kidney 293) was purchased, and used in the present test. Nav1.1 current was induced by stimulating Ramp wave voltage. Detection of current which accompanied with the stimulation of voltage was carried out by a patch-clamp voltage-clamp method using HTS automated patch clamp system (SynchroPatch 768PE, Nanion Technologies GmbH, Germany). Only cells with more than 500 pA of voltage-gated sodium channel current were used for the evaluation of the activity of compounds on Nav1.1 current because there was the possibility that currents derived from endogenous voltage-gated sodium channels accounted for large proportion in cells with less than 500 pA of voltage-gated sodium channel current which was induced by stimulating Ramp wave voltage.
(3) Pharmacological Effect on Nav1.1 Current
The effect of test compounds on the amplification of Nav1.1-derived voltage-gated sodium current was evaluated by using a cell line stably expressing human Nav1.1 and HTS automated patch clamp system. In other words, test compounds were added in an extracellular fluid containing 1% DMSO, and evaluated as a change of the peak value of Nav1.1 current and the area under the curve (AUC).
(4) Method for Pharmacological Evaluation
The Nav1.1 current amplification rates of test compounds were calculated by the following formula:
Nav1.1 current amplification rate (%)=100×[the peak value of Nav1.1 current or the area under the curve after the addition of test compounds]/[the peak value of Nav1.1 current or the area under the curve before the addition of test compounds]−100

[1] = Concentration for evaluation 3 μM, HEK293 cell line stably expressing human Nav1.1
[2] = Concentration for evaluation 10 μM, HEK293 cell line stably expressing human Nav1.1
[3] = concentration for evaluation 1 μM, HEK293 stably expressing human Nav1.1
[4] = Concentration for evaluation 1 μM, HEK293 cell line stably expressing human Nav1.1
[5] = concentration for evaluation 50 μM, HEK293 stably expressing human Nav1.1
[6] = Concentration for evaluation 50 μM, HEK293 cell line stably expressing human Nav1.1
[7] = HEK293, concentration for evaluation 1 μM, HEK293 stably expressing human Nav1.1
[8] = HEK293 cell line stably expressing human Nav1.1
[9] = HEK293, Concentration for evaluation 1 μM, HEK293 cell line stably expressing human Nav1.1

CC1CC=C(c2ccc(=O)n(CC(=O)N3CCc4c(C5CN(C)C5)cccc43)n2)CC1 (stereo not shown) [Example 300]
Nav1.1 current amplification rate (%) [1]: 140%

CC1CCN(c2ccc(=O)n(CC(=O)Nc3cccc(-c4ncco4)c3)n2)CC1 [Example 78]
Nav1.1 current amplification rate (%) [2]: 78%

CC1CC=C(c2ccc(=O)n(CC(=O)Nc3ccc4oc(CN5CCOCC5)nc4c3)n2)CC1 (stereo not shown) [Example 331]
Nav1.1 current amplification rate (%) [1]: 64%

N#Cc1ccc(NC(=O)Cn2ncc3cnc(N4CCC5(CC5)C(F)(F)C4)nc32)cn1 [Example 823]
Nav1.1 current amplification rate (%) [3]: 226%

CC1CCN(c2ncc3cnn(CC(=O)Nc4ccc5cncnc5c4)c3n2)CC1 [Example 806]
Nav1.1 current amplification rate (%) [3]: 262%

CC1CC=C(c2ccc(=O)n(CC(=O)Nc3cncc(C4=COCCC4)c3)n2)CC1 (stereo not shown) [Example 382]
Nav1.1 current amplification rate (%) [4]: 13%

CC1CC=C(c2ccc(=O)n(CC(=O)N3CCCN(c4cccnc4)CC3)n2)CC1 (stereo not shown) [Example 384]
Nav1.1 current amplification rate (%) [4]: 15%

CC1CC=C(c2ccc(=O)n(CC(=O)N3CC=C(c4cncnc4)CC3)n2)CC1 (stereo not shown) [Example 398]
Nav1.1 current amplification rate (%) [2]: 175%

CC1CCN(c2ccc3cnn(CC(=O)Nc4ccc5nccn5n4)c3n2)CC1 [Example 880]
Nav1.1 current amplification rate (%) [5]: 42%

COc1cc(=O)n(CC(=O)N2CCc3c(N4CCOCC4)cccc32)nc1C1=CCC(C(F)(F)F)CC1 (stereo not shown) [Example 476]
Nav1.1 current amplification rate (%) [2]: 343%

CC1CC=C(c2ccc(=O)n(CC(=O)Nc3ccn4cc(C5CC5)nc4c3)n2)CC1 (stereo not shown) [Example 334]
Nav1.1 current amplification rate (%) [1]: 255%

CC1CC=C(c2ccc(=O)n(CC(=O)N3CCN(C4CCOCC4)CC3)n2)CC1 (stereo not shown) [Example 411]
Nav1.1 current amplification rate (%) [6]: 18%

CC1CC=C(c2ccc(=O)n(CC(=O)N3CCC(Cc4ccccc4)C3)n2)CC1 (stereo not shown) [Example 389]
Nav1.1 current amplification rate (%) [2]: 53%

CN(CC1CC(F)(F)C1)c1cnc2cnn(CC(=O)Nc3ccn4ncnc4c3)c2n1 [Example 624]
Nav1.1 current amplification rate (%) [4]: 61%

Cc1nccn1-c1ccc(NC(=O)Cn2nc(C3=CCC(C)CC3)ccc2=O)cc1 (stereo not shown) [Example 361]
Nav1.1 current amplification rate (%) [4]: 101%

CN(c1cnc2cnn(CC(=O)N3CCc4c(-c5ccncc5)cccc43)c2n1)C1CCC1 [Example 689]
Nav1.1 current amplification rate (%) [4]: 286%

CN(C)c1nc2cc(NC(=O)Cn3ncc4ncc(N(C)C5CCCC5)nc43)ccc2o1 [Example 674]
Nav1.1 current amplification rate (%) [4]: 62%

CC1CCN(c2ccc(=O)n(CC(=O)Nc3cncc(C#N)c3)n2)CC1 [Example 60]
Nav1.1 current amplification rate (%) [2]: 57%

N#Cc1ccc(NC(=O)Cn2nc(N3CCCC3)ccc2=O)cc1 [Example 4]
Nav1.1 current amplification rate (%) [2]: 3%

CC1CC=C(c2ccc(=O)n(CC(=O)N3CCc4cc(N5CCOCC5)ccc43)n2)CC1 (stereo not shown) [Example 246]
Nav1.1 current amplification rate (%) [2]: 136%

CC1CC=C(c2ccc(=O)n(CC(=O)Nc3cncc(-c4cnn(C)c4)c3)n2)CC1 (stereo not shown) [Example 378]
Nav1.1 current amplification rate (%) [4]: 37%

COc1cc(C2=CCC(C)CC2)nn(CC(=O)N2CCc3c(N4CCOCC4)cccc32)c1=O (stereo not shown) [Example 473]
Nav1.1 current amplification rate (%) [2]: 487%

O=C(Cn1ncc2ccc(-c3ccc(F)cc3F)nc21)Nc1ccc2ocnc2c1 [Example 884]
activation at 1 µM [7]: 34%

CC1CC=C(c2ccc(=O)n(CC(=O)Nc3ccc4nccn4c3)n2)CC1 (stereo not shown) [Example 343]
Nav1.1 current amplification rate (%) [4]: 44%

O=C(Cn1nc(N2CCCCC2)ccc1=O)Nc1ccnc(C(F)(F)F)c1 [Example 113]
activation at 10 µM [8]: 30%

Cc1ccc(-c2ccc(=O)n(CC(=O)N3CCc4ccccc43)n2)cc1 [Example 157]
Nav1.1 current amplification rate (%) [6]: 29%

CC1CCN(c2ccc3cnn(CC(=O)Nc4ccn5ccnc5c4)c3n2)CC1 [Example 870]
Nav1.1 current amplification rate (%) [3]: 120%

CC1CCN(c2ncc3cnn(CC(=O)Nc4ccc(C#N)nc4)c3n2)CC1(F)F (stereo not shown) [Example 843]
activation at 1 µM [7]: 171%

CC1CCN(c2ccc3cnn(CC(=O)Nc4ccc(C(F)(F)F)nc4)c3n2)CC1 [Example 879]
Nav1.1 current amplification rate (%) [5]: 16%

Cc1nc2cc(NC(=O)Cn3nc(N4CCC(C)CC4)ccc3=O)ccc2s1 [Example 88]
Nav1.1 current amplification rate (%) [2]: 183%

CN(c1cnc2cnn(CC(=O)N3CCc4c(C5CN(C(=O)CO)C5)cccc43)c2n1)C1CCC1 [Example 696]
Nav1.1 current amplification rate (%) [4]: 306%

CN(c1cnc2cnn(CC(=O)N3Cc4ccc(Br)cc4C3)c2n1)C1CC2(CC2)C1 [Example 751]
activation at 10 µM [8]: 121%

CC1CC=C(c2ccc(=O)n(CC(=O)Nc3ccc4ncnn4c3)n2)CC1 (stereo not shown) [Example 339]
Nav1.1 current amplification rate (%) [4]: 127%

O=C(Cn1nc(C2=CCCCC2)ccc1=O)N1CCc2c(N3CCOCC3)cccc21 [Example 480]
Nav1.1 current amplification rate (%) [4]: 110%

CC1(C)CCCN(c2ccc(=O)n(CC(=O)Nc3ccc(C#N)cc3)n2)C1 [Example 22]
Nav1.1 current amplification rate (%) [2]: 110%

CC1CC=C(c2ccc(=O)n(CC(=O)N3CCc4c(-c5ccn(C)n5)cccc43)n2)CC1 (stereo not shown) [Example 252]
Nav1.1 current amplification rate (%) [1]: 254%

CN(CC1CC1)c1cnc2cnn(CC(=O)Nc3ccc(C#N)nc3)c2n1 [Example 748]
activation at 1 µM [9]: 17%

CC1(C)CC=C(c2ccc(=O)n(CC(=O)N3CCN(c4cncc(F)c4)CC3)n2)CC1 [Example 444]
Nav1.1 current amplification rate (%) [2]: 292%

N#Cc1ccc(NC(=O)Cn2nc(N3CCCC4(CC4)C3)ccc2=O)cc1 [Example 20]
Nav1.1 current amplification rate (%) [2]: 152%

CC1CC2(C1)CN(c1cnc3cnn(CC(=O)Nc4ccc(C#N)nc4)c3n1)C2 [Example 749]
activation at 10 µM [8]: 63%

O=C(Cn1ncc2cnc(N3CCC4(CC4)C(F)(F)C3)nc21)Nc1cccnc1 [Example 826]
Nav1.1 current amplification rate (%) [3]: 31%

CC1CC=C(c2ccc(=O)n(CC(=O)N3CCc4c(CNC5CCOCC5)cccc43)n2)CC1 (stereo not shown) [Example 317]
Nav1.1 current amplification rate (%) [4]: 41%

CN(c1cnc2cnn(CC(=O)Nc3cc4ccccc4cn3)c2n1)C1CC1 [Example 718]
Nav1.1 current amplification rate (%) [6]: 34%

COC1CCN(c2ccc(=O)n(CC(=O)Nc3ccc(C#N)cc3)n2)CC1 [Example 9]
Nav1.1 current amplification rate (%) [2]: 11%

CN(c1cnc2cnn(CC(=O)Nc3cncc(Br)c3)c2n1)C1CCC1 [Example 692]
Nav1.1 current amplification rate (%) [4]: 33%

CN(CC1CCC1)c1ccc2cnn(CC(=O)Nc3ccc4ncnn4c3)c2n1 [Example 873]
Nav1.1 current amplification rate (%) [3]: 89%

CC1CCN(c2ccc(=O)n(CC(=O)Nc3cncc(C(F)(F)F)c3)n2)CC1 [Example 61]
Nav1.1 current amplification rate (%) [2]: 77%

CC1CCN(c2ccc(=O)n(CC(=O)Nc3ccc4scnc4c3)n2)CC1 [Example 87]
Nav1.1 current amplification rate (%) [2]: 255%

CN(c1cnc2cnn(CC(=O)Nc3cnc4cccnc4c3)c2n1)C1CC2(CC2)C1 [Example 752]
activation at 1 µM [9]: 135%

COc1cc(C2=CCC(C)(C)CC2)nn(CC(=O)Nc2ccn3ccnc3c2)c1=O [Example 456]
Nav1.1 current amplification rate (%) [2]: 224%

CN(c1cnc2cnn(CC(=O)Nc3cccnc3)c2n1)C1CC1 [Example 726]
Nav1.1 current amplification rate (%) [2]: 31%

Cc1nc2cc(NC(=O)Cn3nc(N4CCCCC4)ccc3=O)ccc2o1 [Example 118]
activation at 10 µM [8]: 7%

CC1CC=C(c2ccc(=O)n(CC(=O)Nc3cnc4nccn4c3)n2)CC1 (stereo not shown) [Example 337]
Nav1.1 current amplification rate (%) [4]: 52%

CC1CCN(c2ccc(=O)n(CC(=O)Nc3cncc(F)c3)n2)CC1 [Example 65]
Nav1.1 current amplification rate (%) [2]: 17%

Cc1noc2cc(NC(=O)Cn3nc(C4=CCC(C)CC4)ccc3=O)ccc12 (stereo not shown) [Example 240]
Nav1.1 current amplification rate (%) [2]: 241%

CN(c1cnc2cnn(CC(=O)Nc3ccc4ncccc4n3)c2n1)C1CC1 [Example 725]
Nav1.1 current amplification rate (%) [2]: 51%

COc1cc(NC(=O)Cn2nc(N3CCC(C)CC3)ccc2=O)ccn1 [Example 74]
Nav1.1 current amplification rate (%) [2]: 70%

COc1cc(C2=CCC(C(F)(F)F)CC2)nn(CC(=O)N2CCN(c3cncc(F)c3)CC2)c1=O (stereo not shown) [Example 482]
Nav1.1 current amplification rate (%) [2]: 219%

O=C(Cn1ncc2ccc(C3=CCC(F)(F)CC3)nc21)Nc1ccn2ncnc2c1 [Example 860]
Nav1.1 current amplification rate (%) [3]: 50%

CN(CC(F)F)c1cnc2cnn(CC(=O)Nc3ccn4ncnc4c3)c2n1 [Example 627]
Nav1.1 current amplification rate (%) [6]: 60%

CC1CCN(c2cnc3cnn(CC(=O)Nc4ccc5ncnn5c4)c3n2)CC1(F)F (stereo not shown) [Example 658]
Nav1.1 current amplification rate (%) [4]: 33%
